The test concerns the target T1, human GLP-1 receptor (Homo sapiens, UniProt P43220).
T1 construct: expressed in transfected cells; host or cells: membranes of BHK cells (parent BHKTS13), clone FCW467-12A
In words: Assay (II)(a) GLP-1 receptor binding, 125I-GLP-1 displacement SPA on BHK membranes. The conditions noted are these: without presence of serum albumin; read-out: GLP-1R IC50 (nM) [Assay (II)(a)]. In outline: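 Membranes from BHK cells (clone FCW467-12A) stably expressing human GLP-1R were incubated with serially diluted compounds (8×10EE-13 to 8×10EE-7 M before addition) and [125I]-GLP-1-(7-36)NH2 with WGA SPA beads, 2 h at 30° C, pH 7.4. IC50 taken from displacement by non-linear regression. Run at ≤0.001% or 2.0% final serum albumin.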

Structures are written as SMILES. Starred links: 1 amine or outer side, 2 acyl side, 3 side chain; linkers in the order of their positions; H or OH if unused. Non-standard residues stand in square brackets, D forms with d. Residues, ends and D or L forms follow the SMILES beside them. Groups on a side chain read outwards from the residue. *: point of attachment. C18 diacid = O=C(O)CCCCCCCCCCCCCCCCC(=O)*; γGlu = O=C(O)[C@H](CCC(=O)[*:2])N[*:1]; AEEA = NCCOCCOCC(=O)O; Aib = CC(C)(N)C(=O)O

As usually defined, the IC50 is the concentration at which inhibition is half-maximal.

T1 sequence (P43220 24-463): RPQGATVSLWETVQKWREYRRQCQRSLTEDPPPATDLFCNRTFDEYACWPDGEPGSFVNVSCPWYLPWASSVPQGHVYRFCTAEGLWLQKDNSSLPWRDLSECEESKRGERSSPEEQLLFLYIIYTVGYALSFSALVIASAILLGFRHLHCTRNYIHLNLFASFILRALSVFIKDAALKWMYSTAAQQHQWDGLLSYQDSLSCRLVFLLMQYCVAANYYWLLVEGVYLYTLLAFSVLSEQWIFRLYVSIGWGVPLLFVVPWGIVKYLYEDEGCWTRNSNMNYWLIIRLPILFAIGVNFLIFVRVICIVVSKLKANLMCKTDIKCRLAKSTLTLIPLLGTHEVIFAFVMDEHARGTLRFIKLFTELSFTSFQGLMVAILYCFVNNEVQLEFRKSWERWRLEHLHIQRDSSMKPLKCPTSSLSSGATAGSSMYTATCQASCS

For the molecule `CC[C@H](C)[C@H](NC(=O)[C@H](CC(C)C)NC(=O)[C@H](Cc1c[nH]c2ccccc12)NC(=O)[C@H](C)NC(=O)[C@@H](NC(=O)[C@H](Cc1ccccc1)NC(=O)[C@H](CC(=O)O)NC(=O)[C@H](CCCNC(=N)N)NC(=O)[C@H](C)NC(=O)[C@H](CCCNC(=N)N)NC(=O)[C@H](CCCNC(=N)N)NC(=O)[C@H](CC(C)C)NC(=O)[C@H](CC(=O)O)NC(=O)[C@H](CC(C)C)NC(=O)[C@H](Cc1ccc(O)cc1)NC(=O)[C@H](CCCCN)NC(=O)[C@H](CO)NC(=O)[C@H](CC(C)C)NC(=O)[C@H](CC(=O)O)NC(=O)[C@H](CO)NC(=O)[C@@H](NC(=O)[C@H](Cc1ccccc1)NC(=O)[C@@H](NC(=O)CNC(=O)[C@H](CCC(N)=O)NC(=O)C(C)(C)NC(=O)[C@@H](N)Cc1c[nH]cn1)[C@@H](C)O)[C@@H](C)O)C(C)C)C(=O)N[C@@H](CC(N)=O)C(=O)N[C@@H](CCCCNC(=O)CC[C@H](NC(=O)CC[C@H](NC(=O)COCCOCCNC(=O)COCCOCCNC(=O)CC[C@H](NC(=O)CCCCCCCCCCCCCCCCC(=O)O)C(=O)O)C(=O)O)C(=O)O)C(N)=O` [Chem. 24, N^ε29-[(4S)-4-carboxy-4-[[(4S)-4-carboxy-4-[[2-[2-[2-[[2-[2-[2-[[(4S)-4-carboxy-4-(17-carboxyheptadecanoylamino)butanoyl]amino]ethoxy]ethoxy]acetyl]amino]ethoxy]ethoxy]acetyl]amino]butanoyl]amino]butanoyl]-[Aib2,Leu10,Leu16,Arg20,Ala24,Ile27,Lys29]-Glucagon amide] (H-H[Aib]QGTFTSDLSKYLDLRRARDFVAWLINK([γGlu-γGlu-AEEA-AEEA-γGlu-C18 diacid])-NH2; N-terminus assumed), the IC50 was 0.4 nM.
For `CC[C@H](C)[C@H](NC(=O)[C@H](CC(C)C)NC(=O)[C@H](Cc1c[nH]c2ccccc12)NC(=O)[C@H](CCC(N)=O)NC(=O)[C@@H](NC(=O)[C@H](Cc1ccccc1)NC(=O)[C@H](CCC(=O)O)NC(=O)[C@H](CCCNC(=N)N)NC(=O)[C@H](C)NC(=O)[C@H](CCCNC(=N)N)NC(=O)[C@H](CCCNC(=N)N)NC(=O)[C@H](CO)NC(=O)[C@H](CCC(=O)O)NC(=O)[C@H](CC(C)C)NC(=O)[C@H](Cc1ccc(O)cc1)NC(=O)[C@H](CCCCN)NC(=O)[C@H](CO)NC(=O)[C@H](CC(C)C)NC(=O)[C@H](CC(=O)O)NC(=O)[C@H](CO)NC(=O)[C@@H](NC(=O)[C@H](Cc1ccccc1)NC(=O)[C@@H](NC(=O)CNC(=O)[C@H](CCC(N)=O)NC(=O)C(C)(C)NC(=O)[C@@H](N)Cc1c[nH]cn1)[C@@H](C)O)[C@@H](C)O)C(C)C)C(=O)N[C@@H](CCCCNC(=O)CC[C@H](NC(=O)CC[C@H](NC(=O)COCCOCCNC(=O)COCCOCCNC(=O)CC[C@H](NC(=O)CC[C@H](NC(=O)CCCCCCCCCCCCCCCCC(=O)O)C(=O)O)C(=O)O)C(=O)O)C(=O)O)C(=O)N[C@H](C(N)=O)[C@@H](C)O` [Chem. 25, N^ε28-[(4S)-4-carboxy-4-[[(4S)-4-carboxy-4-[[2-[2-[2-[[2-[2-[2-[[(4S)-4-carboxy-4-[[(4S)-4-carboxy-4-(17-carboxyheptadecanoylamino)butanoyl]amino]butanoyl]amino]ethoxy]ethoxy]acetyl]amino]ethoxy]ethoxy]acetyl]amino]butanoyl]amino]butanoyl]-[Aib2,Leu10,Glu15,Arg20,Glu21,Ile27,Lys28]-Glucagon amide] (H-H[Aib]QGTFTSDLSKYLESRRAREFVQWLIK([γGlu-γGlu-AEEA-AEEA-γGlu-γGlu-C18 diacid])T-NH2; N-terminus assumed) the value was 0.1 nM.

Values taken from US10570184B2, “GLP-1/glucagon receptor co-agonists for medical use” (Novo Nordisk A/S, priority 2014, dated 2020).
